Data published in patent publication US20210008104A1, “COMPOSITIONS AND METHODS FOR INHIBITING HIV-1 REVERSE TRANSCRIPTASE” (The United States of America, as represented by the …, priority 2017, published 2021).
“Also recorded” adds a separate entry of the source. Each block holds one molecule with its values, some of them ahead of it.

Key:
human DNA polymerase β [1] = target: T1, human DNA polymerase β (Homo sapiens, UniProt P06746); assay: Overall equilibrium constant determination (gapped vs nicked DNA); format: biochemical; design: made in house; settings: dCTP
Procedure: A mixture of 500 nM pol β with single-nucleotide gapped DNA (pol/DNA=10; templating G or C) containing various concentrations of PPi (500-2,000 μM) or PNP (20, 50, 100 μM) was mixed with an equal volume of 20 mM MgCl2 containing 60-100 nM dCTP or 50 μM dGMPPNP and incubated at 37° C. for various time intervals. Aliquots (10 μl) were withdrawn at various times and quenched with an equal volume of 0.3 M EDTA. The reactions were quenched after 10-80 s and reaction products separated on a sequencing gel. The substrate (gapped DNA) and product (nicked DNA) bands were quantitated, and the overall equilibrium constant calculated; Keq=[nicked DNA][PPi]/[gapped DNA][dCTP] or [nicked DNA] [PNP]/[gapped DNA][dGMPPNP]. The mean and standard error for 6 independent determinations are reported in the text.

[2] = target: T2, pol β-nicked DNA complexes (Homo sapiens, UniProt P06746); assay: Time-lapse crystallography of the reverse reaction
T2 construct: made in house
Procedure: Binary complex crystals with nicked DNA were grown as previously described43. The time-lapse crystallography was performed as before11 and is briefly summarized here. Binary pol β/DNA complex crystals were first transferred to a cryosolution containing 15% ethylene glycol, 50 mM imidazole, pH 7.5, 20% PEG3350, 90 mM sodium acetate, 2 mM PNP and 50 mM CaCl2) for 1 h. These ground state (GS) ternary complex crystals were then transferred to a cryosolution containing 200 mM MgCl2 for varying times. All reactions were stopped by freezing the crystals at 100K before data collection at the home source, 1.54 Å, or the Advanced Photon Source, 1.0 Å (Argonne National Laboratory). In house data collection was done on a SATURN92 CCD detector system mounted on a […] rotating anode generator. This allows for anomalous data detection after phasing by molecular replacement. […] Initial models were determined using molecular replacement with the open binary (PDB ID 3ISB) or closed ternary (PDB ID 2FMS) structures of pol β and all Rfree flags were taken from the starting model. […] The metal-ligand coordination restraints were generated by ReadySet (PHENIX) and not used until the final rounds of refinement. […] Ramachandran analysis determined 100% of nonglycine residues lie in allowed regions and at least 97% in favored regions.

human DNA polymerase β [3] = target: T1, human DNA polymerase β; assay: Removal of chain-terminated or mismatched primer termini by reverse reaction; format: biochemical; design: made in house; settings: G-A or G-T primer terminal mismatch
Procedure: The removal of a terminated primer terminus by the reverse reaction required enzymatic synthesis of the nicked DNA substrate. A pre-incubated mixture of 4 μM pol and 0.4 μM one-nucleotide gapped DNA was mixed 1:1 (v/v) with 20 mM MgCl2 and 0.2 μM various triphosphates of chain-terminating nucleotides ([…], or dFdCTP). The gap-filling reaction proceeded at 37° C. for 10-20 min to generate a terminated nicked DNA substrate. An aliquot was removed and quenched to verify complete gap filling (16-mer). The reverse reaction was initiated by addition of an equal volume of 10 mM MgCl2 and 250 μM PPi or PNP. An aliquot (time=3 min) was removed, quenched, and analyzed on a denaturing gel. The removal of a terminal mismatch by a reverse reaction was followed by incubation of […] Pol with 100 nM 5'-^32P-labeled nicked DNA substrate with a matched (G-C) or mismatched (G-A or G-T) primer terminal base pair for 5 min at 37° C. This was mixed with a solution of 20 mM MgCl2 and 2 mM PPi or PNP (1:1, v/v) to initiate the reaction.

human DNA polymerase β [4] = target: T1, human DNA polymerase β; assay: Single-turnover analysis of reverse reaction (pyrophosphorolysis / PNP-dependent) on nicked DNA; format: biochemical; design: made in house
Procedure: Reaction buffer. All kinetic measurements were performed in a buffer containing 50 mM MES, 25 mM Tris, 25 mM ethanolamine (pH 7.5 adjusted at 37° C.), 100 mM KCl, 10 mM MgCl2 supplemented with 10% glycerol, 100 μg/ml bovine serum albumin, 1 mM DTT, and 0.1 mM EDTA. […] DNA polymerase β was used to fill a 1-nucleotide gapped DNA substrate with either [^32P] dCTP or [^35S] dATP to create a 3'-radiolabeled nicked DNA substrate. The reaction mixture contained 50 mM Tris-Cl, pH 7.4 (37° C.), 100 mM KCl, 10 mM MgCl2, 1 mM DTT, 2.5 μM gapped DNA, […] [^32P] dCTP or [^35S] dATP. The single-nucleotide DNA substrate was similar to the nicked substrate described above, except the primer strand was one nucleotide shorter (3'-nucleotide deleted). Gap filling was initiated by addition of pol β and incubated at 37° C. for 5-10 min. The reaction was quenched by addition of 0.5 M EDTA (0.1 vol). To remove enzyme and unincorporated nucleotides, the mixture was extracted with phenol-chloroform-isoamyl alcohol (25:24:1) followed by two passages through BioSpin 6 columns. Aliquots of the labeling reaction were removed before and following the extraction and removal steps to determine final DNA substrate concentration. Pre- and post-aliquots (1 μl) were spotted onto PEI cellulose plates and developed in 0.375 M KH2PO4, pH 4.0. The ratio (post/preextraction) was used to correct the initial DNA concentration for loss or dilution of substrate. Kinetic parameters for the reverse reaction were determined under single turnover conditions (E/DNA=10) at 37° C. […] Time courses were initiated by mixing with an equal volume of a 20 mM MgCl2 and 50 μM dNTP trap solution in reaction buffer. The dNTP trap prevents re-insertion of radiolabeled product dNTP and corresponds to the identity of the nucleotide triphosphate produced during the reaction. […] EDTA (0.1 or 0.2 M) was used as the quenching agent. Substrates and products were resolved by TLC in either 0.2 or 0.3 M NaPi, pH 7.0 buffer. Kinetic analysis. Single-turnover time courses were fit to a single exponential equation to yield the first-order rate constants (kobs) at a given concentration of GMPPNP, PPi or PNP. Under these conditions, kobs was dependent on the concentration of substrate. A secondary plot of the concentration dependence of kobs was hyperbolic and fitted by nonlinear least-squares method to equation (1) where kmax is the intrinsic rate constant for the step limiting the first nucleotide insertion (forward reaction) or removal (reverse reaction). kobs=kmax[S]/[…] (1) […] Unless noted, kinetic constants represent best-fit parameters and their standard error.

human DNA polymerase β [5] = target: T1, human DNA polymerase β; settings: [32P]PPi into dCTP, slope/enzyme-DNA complex
Procedure: Pyrophosphate exchange assay. Pol β (2.5 μM) was pre-incubated with 500 nM unlabeled nicked DNA substrate containing a matched primer terminal base pair (G-C, template-primer) in reaction buffer with 20 mM MgCl2 and manually mixed (1:1, v/v) with a prewarmed solution of reaction buffer, 2 mM [^32P] PPi, and 100 μM dCTP. Aliquots were withdrawn at various time points and quenched with 1 vol. of 0.3 M EDTA. Quenched reactions mixtures were applied to PEI cellulose plates and developed in 0.3 M potassium phosphate buffer, pH 8.0. Plates were scanned followed by quantitation using a phosphorimager and ImageQuant software.

human DNA polymerase β [6] = target: T1, human DNA polymerase β; assay: Qualitative reverse reaction assay with PPi analogs; format: biochemical; design: made in house; settings: 1 mM PPi analog, 10 mM MgCl2, 5′-32P-labeled nicked DNA
Procedure: Reverse reaction assay. Pol β (1 μM) was pre-incubated with 100 nM nicked DNA containing either a matched or mismatched primer terminus for 5 min at 37° C. in reaction buffer. A solution with 20 mM MgCl2 containing 2 mM PPi or pyrophosphate analog in reaction buffer was used to initiate the reaction. Following mixing, the final concentrations were 500 nM pol β, 50 nM nicked DNA, 10 mM MgCl2, and 1 mM PPi or pyrophosphate analog. Aliquots (5 or 10 μl) were removed at various times and quenched in an equal volume of 0.3 M EDTA, pH 8.0. Reaction substrates and products were separated and visualized as described above.

human DNA polymerase β [7] = target: T1, human DNA polymerase β; assay: Gap filling DNA synthesis kinetic assay (single-turnover insertion); format: biochemical; design: made in house
Procedure: Gap filling DNA synthesis kinetic assay. To measure the rate of the first insertion (kpol) and apparent equilibrium nucleotide dissociation constant (Kd), single-turnover kinetic assays (enzyme/DNA=10) were performed as described previously. Briefly, a pre-incubated solution of enzyme and DNA was rapidly mixed with various concentrations of MgCl2 and dGMPPNP using a Kintek RQF-3 rapid quench-flow. Reactions were quenched with 0.25 M EDTA.
where S=dGMPPNP, PPi, or PNP. For the insertion of dGMPPNP, the secondary plot was fit to a quadratic equation (equation (2)) due to its high affinity relative to the enzyme concentration.
kobs=(kpol)(((Kd+[dGMPPNP]+[EDNA])((Kd+[dGMPPNP]+[EDNA])^2)−(4[dGMPPNP][EDNA]))^0.5)/2[EDNA] (2)

[8] = single-turnover gap filling, relative to natural nucleotide

Compound: O=P(O)(O)OP(=O)(O)O [PPi, pyrophosphate]
calculated equilibrium constant (human DNA polymerase β [1]; 1000 μM PPi): 62,700 | calculated equilibrium constant (human DNA polymerase β [1]; 2000 M PPi): 82,300 | overall equilibrium constant Keq (human DNA polymerase β [1]; different PPi concentrations, mean and standard error of 6 determinations): 68,700±7,200 | reverse reaction in crystals ([2]; binary pol β-nicked DNA crystals soaked with ligand): did not generate dNTP | removal of a 3′ mismatched nucleotide (human DNA polymerase β [3]): very poor | kobs for removal of 32P-labeled dAMP (human DNA polymerase β [4]; 1 mM PPi, 3′-[32P]dAMP primer terminus, single-turnover): 0.030 s⁻¹ | kobs for removal of 35S-labeled dAMP (human DNA polymerase β [4]; 1 mM PPi, 3′-[35S]dAMP (phosphorothioate) primer terminus, single-turnover): 0.039 s⁻¹ | Kd (human DNA polymerase β [4]; nicked DNA with 3′-[32P]dCMP, single-turnover, secondary plot of kobs, read-out: apparent PPi binding affinity (Kd)): ~90 µM | observed rate constant for the reverse reaction (krev) (human DNA polymerase β [4]; nicked DNA, single-turnover (enzyme/DNA>1)): ~0.03 s⁻¹ | phosphorothioate (thio-elemental) effect krev(O)/krev(S) (human DNA polymerase β [4]; removal of 3′-terminal Rp-phosphorothioate nucleotide vs dAMP): no phosphorothioate elemental effect | observed rate for the exchange reaction (human DNA polymerase β [5]): 0.028 s⁻¹

Compound: O=P(O)(O)NP(=O)(O)O [PNP, imidodiphosphate]
complexes that had undergone a reverse reaction (occupancy refinement) ([2]; short Mg2+ soak of PNP-Ca2+ ternary complex crystals): approximately 40%

Compound: Nc1nc2c(ncn2[C@H]2C[C@H](O)[C@@H](COP(=O)(O)OP(=O)(O)NP(=O)(O)O)O2)c(=O)[nH]1 [dGMPPNP, 2′-deoxyguanosine-5′-[(β, γ)-imido]triphosphate]
inhibition of the forward reaction (human DNA polymerase β [7]; binds tightly and is inserted slowly): good inhibitor | binding affinity (human DNA polymerase β [7]; [8]): increased | rate of insertion (human DNA polymerase β [7]; [8]): strongly diminished; also recorded: two orders of magnitude

Compound: NCCC(O)(P(=O)(O)O)P(=O)(O)O [pamidronate]
ability to serve as substrate for the reverse reaction (qualitative) (human DNA polymerase β [6]): poor

Next, values leading:

ability to serve as substrate for the reverse reaction (qualitative) (human DNA polymerase β [6]): moderate
Compound: CC(O)(P(=O)(O)O)P(=O)(O)O [etidronate]

ability to serve as substrate for the reverse reaction (qualitative) (human DNA polymerase β [6]): poor
Compound: O=P(O)(O)C(Cl)(Cl)P(=O)(O)O [clodronate]
